Where two headings read alike, the source gives them in different places.
Tests used:
[1] = tested on: neuronal M2 muscarinic receptors; test: neuronal M2 muscarinic receptor function (gallamine potentiation of vagally induced bronchoconstriction); format: in vivo, guinea pigs; settings: ozone-exposed, 30 mg/kg ip 1 h before ozone, gallamine 0.1–10 mg/kg iv
Protocol: Guinea pigs were exposed to 2 ppm ozone or filtered air for 4 hours as described previously. Physiological measurements, airway inflammation, and histological measurements were made one day after a single ozone exposure.
Animals were given 30 mg/kg intraperitoneally of the dual p38 and JNK MAPK inhibitors V-05-013, V-05-014, or V-05-015 (Vertex Pharmaceuticals, Cambridge, MA) one hour before ozone exposure (Figure 1). These compounds were chosen because of their overall kinase selectivity profile. […] Inhibitors were dissolved in 25% DMSO in phosphate buffered saline (PBS). Air exposed control animals were given 25% DMSO in PBS one hour before ozone exposure.
Recovery from administration of intravenous acetylcholine was confirmed by pulmonary inflation pressure and heart rate returning to baseline before measuring M2 muscarinic receptor function (5–10 minutes after the last dose of acetylcholine).

MKK7 = molecular target: T1, MKK7 (Homo sapiens, UniProt O14733); test: spectrophotometric coupled-enzyme kinase inhibition assay; format: biochemical; settings: read-out: Ki or IC50 MKK7
T1 sequence (O14733 1-419): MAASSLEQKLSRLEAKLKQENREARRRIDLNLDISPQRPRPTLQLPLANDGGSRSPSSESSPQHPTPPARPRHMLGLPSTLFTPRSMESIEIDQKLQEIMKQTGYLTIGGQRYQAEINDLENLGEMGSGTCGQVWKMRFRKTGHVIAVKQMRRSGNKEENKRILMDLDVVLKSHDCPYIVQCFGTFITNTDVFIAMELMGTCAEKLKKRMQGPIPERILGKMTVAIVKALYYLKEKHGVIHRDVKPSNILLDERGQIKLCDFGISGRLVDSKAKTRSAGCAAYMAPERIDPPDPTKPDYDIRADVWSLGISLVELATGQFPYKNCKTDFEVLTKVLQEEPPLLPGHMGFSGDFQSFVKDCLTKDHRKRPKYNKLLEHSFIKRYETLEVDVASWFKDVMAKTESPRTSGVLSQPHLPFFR
Protocol: (§1) Affinity was measured using a kinase inhibition assay. Compounds were assayed for the inhibition of various kinases using a modification of a spectrophotometric coupled-enzyme assay. In this assay, a fixed concentration of activated kinase (10–40 nM) was incubated with various concentrations of a potential inhibitor dissolved in DMSO for 10 minutes at 30°C in a buffer containing 0.1 M HEPES, pH 7.5, containing 10 mM MgCl2, 2.5 mM phosphoenolpyruvate, 200 µM NADH, 2 mM DTT, 30 µg/mL pyruvate kinase, 10 µg/mL lactate dehydrogenase, and 200 µM–500 µM EGF receptor peptide. The EGF receptor peptide has the sequence […]. The reaction was initiated by the addition of ATP equal to the ATP Km of the kinase, and the assay plate is inserted into the spectrophotometer’s assay plate compartment that was maintained at 30°C. The decrease of absorbance at 340 nm was monitored as a function of time for 10 minutes. The rate data as a function of inhibitor concentration was either fit as an IC50 or to a competitive inhibition kinetic model to determine the compound Ki (see table 1).

GSK3β = GSK3β (Homo sapiens, UniProt P49841); test: as above; format: biochemical
GSK3β, sequence (P49841 whole entry, species assumed): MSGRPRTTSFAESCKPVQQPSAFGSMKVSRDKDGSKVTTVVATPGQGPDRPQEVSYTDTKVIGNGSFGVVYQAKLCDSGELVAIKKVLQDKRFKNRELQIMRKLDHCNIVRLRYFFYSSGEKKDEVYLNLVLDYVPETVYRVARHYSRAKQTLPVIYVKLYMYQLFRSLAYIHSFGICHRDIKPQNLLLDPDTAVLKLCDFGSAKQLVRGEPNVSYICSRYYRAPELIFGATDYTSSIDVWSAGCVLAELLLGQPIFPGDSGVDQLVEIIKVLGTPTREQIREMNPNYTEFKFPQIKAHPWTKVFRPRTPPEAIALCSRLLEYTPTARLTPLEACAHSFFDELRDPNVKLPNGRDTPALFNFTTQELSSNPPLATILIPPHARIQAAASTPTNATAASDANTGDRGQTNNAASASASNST
Protocol: as §1

JNK2 = JNK2 (Homo sapiens, UniProt P45984); test: as above; format: biochemical; settings: ATP equal to Km, 30°C
JNK2, sequence (P45984 whole entry, species assumed): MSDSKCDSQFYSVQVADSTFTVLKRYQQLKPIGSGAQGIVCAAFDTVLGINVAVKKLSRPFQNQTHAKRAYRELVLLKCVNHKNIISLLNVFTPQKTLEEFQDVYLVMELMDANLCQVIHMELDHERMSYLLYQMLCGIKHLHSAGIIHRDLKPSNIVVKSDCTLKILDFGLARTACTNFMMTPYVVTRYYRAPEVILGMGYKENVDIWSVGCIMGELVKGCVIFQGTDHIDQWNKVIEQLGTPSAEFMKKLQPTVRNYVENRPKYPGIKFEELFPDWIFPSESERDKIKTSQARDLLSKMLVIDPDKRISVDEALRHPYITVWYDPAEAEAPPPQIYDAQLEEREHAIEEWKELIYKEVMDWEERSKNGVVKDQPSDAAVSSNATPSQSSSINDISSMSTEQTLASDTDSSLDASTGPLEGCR
Protocol: as §1

ROCK1 = ROCK1 (Homo sapiens, UniProt Q13464); test: as above; format: biochemical; settings: read-out: Ki or IC50 ROCK1
ROCK1, sequence (Q13464 whole entry, species assumed): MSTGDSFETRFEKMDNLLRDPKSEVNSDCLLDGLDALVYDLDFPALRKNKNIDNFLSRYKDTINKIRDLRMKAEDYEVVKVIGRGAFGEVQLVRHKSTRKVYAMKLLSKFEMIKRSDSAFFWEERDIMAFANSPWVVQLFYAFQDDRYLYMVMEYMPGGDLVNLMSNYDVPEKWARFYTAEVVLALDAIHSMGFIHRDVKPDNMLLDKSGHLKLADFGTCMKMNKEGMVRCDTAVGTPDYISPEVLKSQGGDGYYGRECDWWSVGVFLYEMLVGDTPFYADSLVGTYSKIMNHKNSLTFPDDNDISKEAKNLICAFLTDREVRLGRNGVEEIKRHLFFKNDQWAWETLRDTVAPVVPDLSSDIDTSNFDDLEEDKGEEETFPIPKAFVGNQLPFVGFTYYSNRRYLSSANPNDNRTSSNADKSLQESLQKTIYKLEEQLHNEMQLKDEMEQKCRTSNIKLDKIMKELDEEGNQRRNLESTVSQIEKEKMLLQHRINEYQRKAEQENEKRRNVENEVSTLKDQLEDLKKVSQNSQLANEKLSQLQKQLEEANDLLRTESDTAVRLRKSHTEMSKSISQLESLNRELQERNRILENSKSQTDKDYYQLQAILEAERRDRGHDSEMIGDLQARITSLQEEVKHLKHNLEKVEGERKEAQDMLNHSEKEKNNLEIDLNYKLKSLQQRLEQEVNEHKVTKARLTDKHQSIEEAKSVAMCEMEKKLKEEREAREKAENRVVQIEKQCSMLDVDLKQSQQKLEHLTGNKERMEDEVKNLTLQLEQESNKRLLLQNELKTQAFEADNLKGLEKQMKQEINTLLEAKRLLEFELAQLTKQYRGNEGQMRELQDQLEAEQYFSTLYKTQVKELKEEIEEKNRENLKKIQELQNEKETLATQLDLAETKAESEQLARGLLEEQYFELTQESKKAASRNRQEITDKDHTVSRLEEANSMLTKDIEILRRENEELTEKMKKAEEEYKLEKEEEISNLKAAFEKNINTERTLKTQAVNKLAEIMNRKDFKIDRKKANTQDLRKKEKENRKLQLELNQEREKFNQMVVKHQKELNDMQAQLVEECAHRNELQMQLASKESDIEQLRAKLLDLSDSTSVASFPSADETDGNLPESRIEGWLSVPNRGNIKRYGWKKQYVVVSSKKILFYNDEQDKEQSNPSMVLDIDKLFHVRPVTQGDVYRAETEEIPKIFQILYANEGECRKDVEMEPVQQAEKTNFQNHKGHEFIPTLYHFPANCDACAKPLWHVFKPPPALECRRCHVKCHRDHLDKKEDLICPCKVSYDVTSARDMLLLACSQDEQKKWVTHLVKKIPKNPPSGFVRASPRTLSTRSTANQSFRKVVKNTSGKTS
Protocol: as §1

MAPKAP2 = MAPKAP2 (Homo sapiens, UniProt P49137); test: as above; format: biochemical; settings: read-out: Ki or IC50 MAPKAP2
MAPKAP2, sequence (P49137 whole entry): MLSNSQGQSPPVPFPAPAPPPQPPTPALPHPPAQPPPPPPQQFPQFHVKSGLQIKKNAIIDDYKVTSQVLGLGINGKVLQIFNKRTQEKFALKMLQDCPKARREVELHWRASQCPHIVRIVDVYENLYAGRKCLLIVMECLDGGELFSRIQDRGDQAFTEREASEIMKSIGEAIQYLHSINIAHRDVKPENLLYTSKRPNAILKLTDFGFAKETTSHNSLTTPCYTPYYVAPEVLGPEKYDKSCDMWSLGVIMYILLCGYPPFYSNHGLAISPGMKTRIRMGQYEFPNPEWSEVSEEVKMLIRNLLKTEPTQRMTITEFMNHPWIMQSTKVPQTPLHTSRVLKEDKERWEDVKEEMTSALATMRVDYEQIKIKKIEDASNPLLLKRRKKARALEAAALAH
Protocol: as §1

MKK6 = molecular target: T2, MKK6 (Homo sapiens, UniProt P52564); test: as above; format: biochemical; settings: read-out: Ki or IC50 MKK6
T2 sequence (P52564 1-334): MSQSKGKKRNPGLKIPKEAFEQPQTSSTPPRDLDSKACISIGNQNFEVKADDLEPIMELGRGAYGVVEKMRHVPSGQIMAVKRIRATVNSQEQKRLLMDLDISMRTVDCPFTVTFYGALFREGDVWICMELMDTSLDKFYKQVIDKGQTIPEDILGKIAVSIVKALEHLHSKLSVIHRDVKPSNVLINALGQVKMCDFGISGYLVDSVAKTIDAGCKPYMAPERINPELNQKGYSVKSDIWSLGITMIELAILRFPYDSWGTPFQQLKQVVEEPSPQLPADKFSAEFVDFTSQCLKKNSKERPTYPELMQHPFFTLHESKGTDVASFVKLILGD
Protocol: as §1

JNK1 = JNK1 (Homo sapiens, UniProt P45983); test: as above; format: biochemical; settings: ATP equal to Km, 30°C
JNK1, sequence (P45983 whole entry, species assumed): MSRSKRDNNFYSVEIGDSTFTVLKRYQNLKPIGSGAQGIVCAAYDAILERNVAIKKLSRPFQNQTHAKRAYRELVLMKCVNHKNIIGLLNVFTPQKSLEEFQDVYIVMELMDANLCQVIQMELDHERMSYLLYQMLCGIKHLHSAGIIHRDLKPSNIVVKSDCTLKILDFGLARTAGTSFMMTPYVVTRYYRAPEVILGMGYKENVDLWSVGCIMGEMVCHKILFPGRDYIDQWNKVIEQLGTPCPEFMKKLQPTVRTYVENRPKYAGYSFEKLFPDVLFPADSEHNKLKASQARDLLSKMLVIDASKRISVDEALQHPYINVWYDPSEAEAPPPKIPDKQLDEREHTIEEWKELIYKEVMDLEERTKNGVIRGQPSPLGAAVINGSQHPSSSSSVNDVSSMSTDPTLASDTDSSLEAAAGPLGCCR
Protocol: as §1

ZAP70 = molecular target: T3, ZAP70 (Homo sapiens, UniProt P43403); test: as above; format: biochemical; settings: read-out: Ki or IC50 ZAP70
T3 sequence (P43403 1-619): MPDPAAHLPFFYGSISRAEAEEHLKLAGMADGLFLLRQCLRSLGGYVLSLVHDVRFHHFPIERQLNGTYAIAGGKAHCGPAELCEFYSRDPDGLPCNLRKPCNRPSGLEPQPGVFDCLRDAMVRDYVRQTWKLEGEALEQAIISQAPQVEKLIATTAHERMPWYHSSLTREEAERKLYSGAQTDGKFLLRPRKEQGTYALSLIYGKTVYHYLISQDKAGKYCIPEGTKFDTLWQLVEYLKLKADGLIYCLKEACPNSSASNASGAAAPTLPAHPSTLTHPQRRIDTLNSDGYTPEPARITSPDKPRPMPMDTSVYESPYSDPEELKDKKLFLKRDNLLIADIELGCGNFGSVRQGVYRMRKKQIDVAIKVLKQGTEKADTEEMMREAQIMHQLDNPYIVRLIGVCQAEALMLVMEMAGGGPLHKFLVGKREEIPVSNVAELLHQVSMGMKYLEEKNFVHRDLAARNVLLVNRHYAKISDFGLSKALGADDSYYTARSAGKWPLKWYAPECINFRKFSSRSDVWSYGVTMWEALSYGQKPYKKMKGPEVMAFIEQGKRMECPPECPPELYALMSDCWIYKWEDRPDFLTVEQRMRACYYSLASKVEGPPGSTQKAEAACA
Protocol: as §1

SMILES	effect on ozone-induced M2 receptor dysfunction [1]	Ki (MKK7)	Ki (GSK3β; read-out: GSK3β Ki)	Ki (JNK2)	Ki (ROCK1)	Ki (MAPKAP2)	Ki (MKK6)	Ki (JNK1)	Ki (ZAP70)	Ki (GSK3β; read-out: Ki or IC50 GSK3β)
OC1CCN(Cc2onc(-c3ccc(F)cc3)c2-c2ccnc(NC3CCCCC3)n2)CC1 [V-05-013]	partially prevented M2 receptor dysfunction	> 1000 nM	730 nM	10 nM	> 1000 nM	> 1000 nM	> 1000 nM	170 nM	> 1000 nM	
OC[C@@H]1CCCN1Cc1onc(-c2ccc(F)cc2)c1-c1ccnc(NC2CCCCC2)n1 [V-05-014]	completely protected M2 receptor function	> 1000 nM		15 nM	> 1000 nM	> 1000 nM	> 1000 nM	300 nM	> 1000 nM	> 1000 nM
Fc1ccc(-c2noc(CN3CCCCC3)c2-c2ccnc(NC3CCCCC3)n2)cc1 [V-05-015]	completely protected M2 receptor function	> 1000 nM		4 nM	> 1000 nM	> 1000 nM	> 1000 nM	120 nM	> 1000 nM	> 1000 nM

Reference: paper PMC3776780, “Dual p38/JNK Mitogen Activated Protein Kinase Inhibitors Prevent Ozone-Induced Airway Hyperreactivity in Guinea Pigs” (PLoS ONE, 2013)
